According to patent publication US4740233A, “Substituted 1,2,4-triazolo[1,5-a]-pyrimidine-2-sulfonamides and compositions and methods of controlling undesired vegetation and suppressing the nitrification of ammonium nitrogen in soil” (The Dow Chemical Company, priority 1986, dated 1988):

Assays:
rape = assay: Postemergent control of plant species; assay type: in vivo, Brassica napus; settings: Brassica napus, post-emergence, 336 h, read-out: percent postemergent control
In short: (§1)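 Each compound is dissolved in acetone, mixed with an equal volume of 0.1% surfactant water, and sprayed on plants grown to 2-4 leaves in nutrient soil. Treated and untreated beds sit under identical greenhouse temperature and light for roughly two weeks before growth reduction is rated.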

soybean = assay: Postemergent control of plant species; assay type: in vivo, Glycine max.; settings: Glycine max, post-emergence, 336 h, read-out: percent postemergent control
In short: as §1

pigweed = assay: Postemergent control of plant species; assay type: in vivo, Amaranthus spp.; settings: Amaranthus retroflexus, post-emergence, 336 h, read-out: percent postemergent control
In short: as §1

velvetleaf = assay: Postemergent control of plant species; assay type: in vivo, Abutilon theophrasti; settings: Abutilon theophrasti, post-emergence, 336 h, read-out: percent postemergent control
In short: as §1

rice [1] = assay: Postemergent control of plant species; assay type: in vivo, Oryza sativa; settings: Oryza sativa, post-emergence, 336 h, read-out: percent postemergent control
In short: as §1

wheat [2] = assay: Postemergent control of plant species; assay type: in vivo, Triticum aestivum; settings: Triticum aestivum, post-emergence, 336 h, read-out: percent postemergent control
In short: as §1

barnyardgrass [3] = assay: Postemergent control of plant species; assay type: in vivo, Echinochloa crusgalli; settings: Echinochloa crus-galli, post-emergence, 336 h, read-out: percent postemergent control
In short: as §1

crabgrass = assay: Postemergent control of plant species; assay type: in vivo, Digitaria spp.; settings: Digitaria sanguinalis, post-emergence, 336 h, read-out: percent postemergent control
In short: as §1

yellow foxtail [4] = assay: Postemergent control of plant species; assay type: in vivo, Setaria lutescens; settings: Setaria, post-emergence, 336 h, read-out: percent postemergent control
In short: as §1

johnson grass = assay: Postemergent control of plant species; assay type: in vivo, Sorghum halepense; settings: Sorghum halepense, post-emergence, 336 h, read-out: percent postemergent control
In short: as §1

wild oats [5] = assay: Postemergent control of plant species; assay type: in vivo, Avena fatua; settings: Avena fatua, post-emergence, 336 h, read-out: percent postemergent control
In short: as §1

cotton = assay: Preemergent control of plant species; assay type: in vivo, Gossypium spp.; settings: Gossypium hirsutum, pre-emergence, 336 h; 0.25 lb/acre; read-out: percent preemergent control
In short: (§2)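 Preemergent application of aqueous emulsions at rates given in the table, uniformly over seeded greenhouse soil. Untreated (water) beds as comparison; rating after 2 weeks as reduction in growth.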

sugar beet = assay: Preemergent control of plant species; assay type: in vivo, Beta saccharifera; settings: Beta vulgaris, pre-emergence, 336 h; 0.25 lb/acre; read-out: percent preemergent control
In short: as §2

jimsonweed = assay: Preemergent control of plant species; assay type: in vivo, Datura stramonium; settings: Datura stramonium, pre-emergence, 336 h; 0.25 lb/acre; read-out: percent preemergent control
In short: as §2

annual morning glory = assay: Preemergent control of plant species; assay type: in vivo, Ipomoea spp.; settings: Ipomoea, pre-emergence, 336 h; 0.25 lb/acre; read-out: percent preemergent control
In short: as §2

corn = assay: Preemergent control of plant species; assay type: in vivo, Zea mays; settings: Zea mays, pre-emergence, 336 h; 0.25 lb/acre; read-out: percent preemergent control
In short: as §2

rice [6] = assay: Preemergent control of plant species; assay type: in vivo, Oryza sativa; settings: Oryza sativa, pre-emergence, 336 h; 0.25 lb/acre; read-out: percent preemergent control
In short: as §2

wheat [7] = assay: Preemergent control of plant species; assay type: in vivo, Triticum aestivum; settings: Triticum aestivum, pre-emergence, 336 h; 0.25 lb/acre; read-out: percent preemergent control
In short: as §2

barnyardgrass [8] = assay: Preemergent control of plant species; assay type: in vivo, Echinochloa crusgalli; settings: Echinochloa crus-galli, pre-emergence, 336 h; 0.25 lb/acre; read-out: percent preemergent control
In short: as §2

wild oats [9] = assay: Preemergent control of plant species; assay type: in vivo; settings: Avena fatua, pre-emergence, 336 h; 0.25 lb/acre; read-out: percent preemergent control
In short: as §2

yellow foxtail [10] = assay: Preemergent control of plant species; assay type: in vivo, Setaria lutescens; settings: Setaria, pre-emergence, 336 h; 0.25 lb/acre; read-out: percent preemergent control
In short: as §2

yellow nutsedge = assay: Preemergent control of plant species; assay type: in vivo, Cyperus esculentus; settings: Cyperus, pre-emergence, 336 h; 0.25 lb/acre; read-out: percent preemergent control
In short: as §2

[11] = test system: nitrification of ammonium nitrogen; assay: Suppression of nitrification of ammonium nitrogen in soil; settings: 27° C.
In short: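 Soil (20 g) moistened to its 1/3 bar tension value, mixed with test chemical and incubated sealed for two weeks at 27° C. Nitrate extracted with ammonium sulfate solution and measured by nitrate-specific ion electrode; value given as % NH4-N remaining.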

cocklebur = assay: Postemergent control of plant species; assay type: in vivo, Xanthium spp.; settings: Xanthium strumarium, post-emergence, 336 h, read-out: percent postemergent control
In short: as §1

## CC(=O)N(c1c(Cl)cccc1Cl)S(=O)(=O)c1nc2nc(C)cc(C)n2n1 [Compound 262]
rape
  plant injury at 500 ppm: 100%
soybean
  plant injury at 500 ppm: 95%
pigweed
  pest or weed control at 500 ppm: 100%
velvetleaf
  pest or weed control at 500 ppm: 100%
Rice [1]
  plant injury at 500 ppm: 40%
Wheat [2]
  plant injury at 500 ppm: 10%
Barnyardgrass [3]
  pest or weed control at 500 ppm: 100%
crabgrass
  pest or weed control at 500 ppm: 95%
Yellow foxtail [4]
  pest or weed control at 500 ppm: 100%
Johnson grass
  pest or weed control at 500 ppm: 100%
Wild oats [5]
  pest or weed control at 500 ppm: 0%
cotton
  plant injury at 280.212 g/ha: 90%
Sugar beet
  plant injury at 280.212 g/ha: 100%
jimsonweed
  pest or weed control at 280.212 g/ha: 100%
Annual morning glory
  pest or weed control at 280.212 g/ha: 90%
corn
  plant injury at 280.212 g/ha: 80%
Rice [6]
  plant injury at 280.212 g/ha: 95%
Wheat [7]
  plant injury at 280.212 g/ha: 0%
Barnyardgrass [8]
  pest or weed control at 280.212 g/ha: 90%
Wild oats [9]
  pest or weed control at 280.212 g/ha: 50%
Yellow foxtail [10]
  pest or weed control at 280.212 g/ha: 95%
Yellow nutsedge
  pest or weed control at 280.212 g/ha: 100%
[11]; 0.06 ppm
  % NH4-N Remaining After 2 Weeks Incubation: 28%
[11]; 0.25 ppm
  % NH4-N Remaining After 2 Weeks Incubation: 49%
[11]; 1 ppm
  % NH4-N Remaining After 2 Weeks Incubation: 75%
[11]; 4 ppm
  % NH4-N Remaining After 2 Weeks Incubation: 89%

## COC(=O)c1cccc(F)c1NS(=O)(=O)c1nc2nc(C)cc(C)n2n1 [Compound 26]
rape
  plant injury at 500 ppm: 100%
soybean
  plant injury at 500 ppm: 95%
cocklebur
  pest or weed control at 500 ppm: 100%
pigweed
  pest or weed control at 500 ppm: 100%
velvetleaf
  pest or weed control at 500 ppm: 100%
Rice [1]
  plant injury at 500 ppm: 80%
Wheat [2]
  plant injury at 500 ppm: 30%
Barnyardgrass [3]
  pest or weed control at 500 ppm: 100%
crabgrass
  pest or weed control at 500 ppm: 90%
Yellow foxtail [4]
  pest or weed control at 500 ppm: 90%
Johnson grass
  pest or weed control at 500 ppm: 100%
Wild oats [5]
  pest or weed control at 500 ppm: 0%
cotton
  plant injury at 280.212 g/ha: 95%
Sugar beet
  plant injury at 280.212 g/ha: 100%
jimsonweed
  pest or weed control at 280.212 g/ha: 100%
Annual morning glory
  pest or weed control at 280.212 g/ha: 95%
corn
  plant injury at 280.212 g/ha: 100%
Rice [6]
  plant injury at 280.212 g/ha: 100%
Wheat [7]
  plant injury at 280.212 g/ha: 0%
Barnyardgrass [8]
  pest or weed control at 280.212 g/ha: 98%
Wild oats [9]
  pest or weed control at 280.212 g/ha: 40%
Yellow foxtail [10]
  pest or weed control at 280.212 g/ha: 100%
Yellow nutsedge
  pest or weed control at 280.212 g/ha: 100%
[11]; 0.06 ppm
  % NH4-N Remaining After 2 Weeks Incubation: 37%
[11]; 0.125 ppm
  % NH4-N Remaining After 2 Weeks Incubation: 45%
[11]; 0.25 ppm
  % NH4-N Remaining After 2 Weeks Incubation: 65%
[11]; 0.5 ppm
  % NH4-N Remaining After 2 Weeks Incubation: 73%
[11]; 1 ppm
  % NH4-N Remaining After 2 Weeks Incubation: 79%

## Cc1cc(C)n2nc(S(=O)(=O)Nc3ccccc3I)nc2n1 [Compound 6]
rape
  plant injury at 500 ppm: 80%
soybean
  plant injury at 500 ppm: 70%
cocklebur
  pest or weed control at 500 ppm: 90%
pigweed
  pest or weed control at 500 ppm: 30%
velvetleaf
  pest or weed control at 500 ppm: 90%
Rice [1]
  plant injury at 500 ppm: 20%
Wheat [2]
  plant injury at 500 ppm: 0%
Barnyardgrass [3]
  pest or weed control at 500 ppm: 35%
crabgrass
  pest or weed control at 500 ppm: 20%
Yellow foxtail [4]
  pest or weed control at 500 ppm: 0%
Johnson grass
  pest or weed control at 500 ppm: 80%
Wild oats [5]
  pest or weed control at 500 ppm: 0%
cotton
  plant injury at 280.212 g/ha: 70%
Sugar beet
  plant injury at 280.212 g/ha: 95%
jimsonweed
  pest or weed control at 280.212 g/ha: 0%
Annual morning glory
  pest or weed control at 280.212 g/ha: 0%
corn
  plant injury at 280.212 g/ha: 0%
Rice [6]
  plant injury at 280.212 g/ha: 80%
Wheat [7]
  plant injury at 280.212 g/ha: 0%
Barnyardgrass [8]
  pest or weed control at 280.212 g/ha: 80%
Yellow nutsedge
  pest or weed control at 280.212 g/ha: 50%
[11]; 0.01 ppm
  % NH4-N Remaining After 2 Weeks Incubation: 15%
[11]; 0.1 ppm
  % NH4-N Remaining After 2 Weeks Incubation: 55%
[11]; 1 ppm
  % NH4-N Remaining After 2 Weeks Incubation: 78%
[11]; 10 ppm
  % NH4-N Remaining After 2 Weeks Incubation: 87%
